Source: ChEMBL document CHEMBL1124152, “Conformationally constrained renin inhibitory peptides: gamma-lactam-bridged dipeptide isostere as conformational restriction” (J Med Chem, 1988)

Legend:
[1] = target: T1, Renin (Homo sapiens, UniProt P00797); assay: Inhibitory activity against human plasma renin; type: cell-free
T1 sequence (P00797 whole entry): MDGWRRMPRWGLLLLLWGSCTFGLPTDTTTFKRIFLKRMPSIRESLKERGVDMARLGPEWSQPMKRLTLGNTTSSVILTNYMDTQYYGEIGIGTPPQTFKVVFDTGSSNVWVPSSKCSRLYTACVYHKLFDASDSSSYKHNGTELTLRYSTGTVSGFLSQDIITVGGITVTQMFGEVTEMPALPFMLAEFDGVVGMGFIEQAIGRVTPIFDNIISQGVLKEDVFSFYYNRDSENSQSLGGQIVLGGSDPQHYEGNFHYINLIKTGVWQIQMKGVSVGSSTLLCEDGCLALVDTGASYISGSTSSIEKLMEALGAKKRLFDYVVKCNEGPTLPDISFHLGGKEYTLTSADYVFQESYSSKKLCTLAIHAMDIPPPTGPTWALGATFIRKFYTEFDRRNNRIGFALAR

[2] = target: T2, Renin (Homo sapiens) (UniProt P00797); assay: Inhibitory activity against human plasma renin at 10e-5 M; type: cell-free
T2 sequence (whole entry): T1 sequence (P00797 whole entry)

Question: Which IC50 [1] does the source give for `CCCC[C@H](NC(=O)[C@H](Cc1ccccc1)NC(=O)OCc1ccccc1)C(=O)N[C@@H](CC(C)C)[C@@H](O)C[C@H](C(=O)N[C@H](C(=O)NCc1ccccn1)[C@H](C)CC)C(C)C` here?
Answer: 26 nM

Question: `CCCC[C@H](NC(=O)CCc1ccccc1)C(=O)N[C@@H](CC(C)C)[C@@H](O)CC(=O)N[C@H](C(=O)NCc1ccccn1)[C@H](C)CC` was tested. Which IC50 [1] did it give?
Answer: 350 nM

Question: With `CCCC[C@H](NC(=O)CCc1ccccc1)C(=O)N[C@@H](CC(C)C)[C@@H](O)C[C@H](C(=O)N[C@H](C(=O)NCc1ccccn1)[C@H](C)CC)C(C)C` as the compound, how does the IC50 [1] read?
Answer: 120 nM

Question: For `CCCC[C@@H](C(=O)N[C@@H](CC(C)C)[C@@H](O)C[C@H](C(=O)N[C@H](C(=O)NCc1ccccn1)[C@@H](C)CC)C(C)C)N1CCC(Cc2ccccc2)C1=O` (stereo in doubt; form 1), which IC50 [1] is on record?
Answer: 27 nM

Question: With `CCCC[C@@H](C(=O)N[C@@H](CC(C)C)[C@@H](O)CC(=O)N[C@H](C(=O)NCc1ccccn1)[C@H](C)CC)N1CCC(Cc2ccccc2)C1=O` (stereo in doubt; form 1) as the compound, how does the inhibition [2] read?
Answer: 46%

Question: For `CCCC[C@@H](C(=O)N[C@@H](CC(C)C)[C@@H](O)CC(=O)N[C@H](C(=O)NCc1ccccn1)[C@H](C)CC)N1CCC(Cc2ccccc2)C1=O` (stereo in doubt; form 2), which inhibition [2] is on record?
Answer: 46%

Question: `CCCC[C@@H](C(=O)N[C@@H](CC(C)C)[C@@H](O)C[C@H](C(=O)N[C@H](C(=O)NCc1ccccn1)[C@H](C)CC)C(C)C)N1CCC(Cc2ccccc2)(NC(=O)OCc2ccccc2)C1=O` (stereo in doubt; form 2) was tested. Which IC50 [1] did it give?
Answer: 6.5 nM

Question: For `CCCC[C@@H](C(=O)N[C@@H](CC(C)C)[C@@H](O)C[C@H](C(=O)N[C@H](C(=O)NCc1ccccn1)[C@@H](C)CC)C(C)C)N1CCC(Cc2ccccc2)C1=O` (stereo in doubt; form 2), which IC50 [1] is on record?
Answer: 14 nM

Question: `CCCC[C@@H](C(=O)N[C@@H](CC(C)C)[C@@H](O)C[C@H](C(=O)N[C@H](C(=O)NCc1ccccn1)[C@H](C)CC)C(C)C)N1CCC(Cc2ccccc2)(NC(=O)OCc2ccccc2)C1=O` (stereo in doubt; form 1) was tested. Which IC50 [1] did it give?
Answer: 6.5 nM
